Columns and labels:
[1] = test system: Jatropha leaf disc explants; test: Adventitious bud induction and callus formation from leaf disc explants on initiation media; format: cell-based, Jatropha curcas; settings: TDZ treatment
Text: Micropropagated true-to-type Jatropha curcas plants were produced and leaf discs were isolated and sterilized using the methods described in Example 1.
Experiments were set-up in a single-factor CRD (one-way ANOVA) to identify the most optimal concentrations of TDZ, BAP, and IBA in the initiation media. Initiated shoots were further propagated as described in the above Examples by being transferred to proliferation and elongation medium which was MS medium (Table 2) with 3% sucrose (w/v), pH 5.8 and solidified with 0.8% agar supplemented with TDZ (0.22 μM)+BAP (4.44 μM)+gibberelic acid (0.70 μM)+IBA (0.50 μM).
All the treatments were performed with 25 replicates, each replication having 8 leaf discs. Data on number of shoots per leaf disc were recorded after 6 weeks of culture.
Leaf discs cultured on almost all hormonal combinations readily produced hard and compact callus on cut surface within 30 days of culture. The adventitious bud induction from leaf disc explants was studied in presence of various concentrations of TDZ and BAP as a source of cytokinin along with very low levels of IBA.
Data scored after 6 weeks of culture inoculation.

[2] = test system: shoots of Jatropha curcas; test: Rooting of well grown shoots on full strength MS medium; format: cell-based; settings: full strength MS medium supplemented with IBA (0.41 μM)
Procedure: Well grown shoots of Jatropha curcas were separated individually and rooted on full strength MS medium supplemented with IBA (0.41 μM). Rooting was 80% and occurred after 30-45 days of culture without any intermediary callus phase. (FIG. 4)

O=C(Nc1ccccc1)Nc1cnns1 [TDZ, 1-phenyl-3-(1,2,3-thiadiazol-5-yl) urea]
total number of shoot bud induction per leaf disc [1]: 4-20 buds

O=C(O)CCCc1c[nH]c2ccccc12 [IBA, indole-3-butyric acid]
Time until rooting occurred [2]: 30 to 45 days
Rooting ([2]; without intermediary callus phase): 80%

Reference: patent publication US8304239B2, “Direct regeneration of plantlets in Jatropha curcas” (Reliance Life Sciences PVT Ltd., priority 2006, dated 2012)
